Data: patent US20230135108A1, “C[…] COMPOUNDS AND METHODS OF MAKING SAME” (Canopy Growth Corporation, priority 2020, published 2023)
Where a name gives a salt, the structure may show the parent alone.

Legend:
[1] = Simulated gastric fluid (SGF) assay; assay type: in vitro ADME; conditions: pH 1.2-1.5, pepsin, 37° C.; for half-life at 10 µM: simulated gastric fluid with pepsin, read-out: half-life in a gastric environment (SGF)
Procedure: In a microcentrifuge tube, 626.5 μL of a solution containing 1.1× assay buffer (37.6 mM NaCI, pH 1.2-1.5) was diluted with 70 μL of a 10× pepsin solution (80,000 U/mL in milliQ water). […] The sample was incubated under the same conditions. At the specified time points, 150 μL aliquots of the sample were transferred to microcentrifuge tubes containing 24 μL of quenching solution (0.5 M NaHCO3). After vortexing for 5 seconds, 348 μL of protein precipitation solution containing an internal standard (25 μM Glyburide, ACN) was added. The tube was vortexed again for 20 seconds and stored in ice. Finally, the tubes were centrifuged at 5,000×g and 4° C. for 15 min. The percentage remaining CBDA or CBDA-arginine salt, respectively, compared to time zero, was quantified in the supernatant by HPLC/LC-MS or LC-MS/MS.

[2] = Solubility in water (HPLC of filtrate); assay type: physicochemical; conditions: 50 mg in 8 mL deionized water, 0.45 micron filter, FIG. 7
Procedure: In a test tube, 50 mg of the respective cannabinoid salt compound was suspended in 8 mL of deionized water and vortexed. The solution was filtered with a syringe equipped with 0.45 micron filter. HPLC was used to determine the quantity of dissolved cannabinoids.

C=C(C)[C@@H]1CCC(C)=C[C@H]1c1c(O)cc(CCCCC)c(C(=O)O)c1O [CBDA, cannabidiolic acid]
half-life at 10 µM [1]: ~19.7 min

CCCCCc1cc2c(c(O)c1C(=O)O)[C@@H]1C=C(C)CC[C@H]1C(C)(C)O2 [THCA, tetrahydrocannabinolic acid]
solubility in water [2]: virtually insoluble | half-life in a gastric environment (SGF) [1]: about 12.2 min

C1CCC(NC2CCCCC2)CC1.CCCCCc1cc2c(c(O)c1C(=O)O)C1C=C(C)CCC1C(C)(C)O2 (centres unmarked) [THCA-DCHA salt]
solubility in water [2]: virtually insoluble

CCCCCc1cc2c(c(O)c1C(=O)O)[C@@H]1C=C(C)CC[C@H]1C(C)(C)O2 [THCA-arginine salt]
half-life at 10 µM [1]: ~14.4 min
